Tests used:
human orexin-1 receptor = human orexin-1 receptor (Homo sapiens (Human), UniProt O43613); experiment: In vitro assay: intracellular calcium measurements (FLIPR), antagonistic activity; format: cell-based; settings: CHO cells expressing human orexin-1 receptor, orexin-A agonist, geometric mean, read-out: IC50 Ox1
Method in brief: (§1)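 Dye-loaded CHO cells expressing either human orexin receptor are exposed to test antagonist for 120 min, then stimulated with orexin-A at 3 nM.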

human orexin-2 receptor = human orexin-2 receptor (Homo sapiens (Human), UniProt O43614); experiment: as above; format: cell-based; settings: CHO cells expressing human orexin-2 receptor, orexin-A agonist, geometric mean, read-out: IC50 Ox2
Sequence of human orexin-2 receptor (O43614 whole entry): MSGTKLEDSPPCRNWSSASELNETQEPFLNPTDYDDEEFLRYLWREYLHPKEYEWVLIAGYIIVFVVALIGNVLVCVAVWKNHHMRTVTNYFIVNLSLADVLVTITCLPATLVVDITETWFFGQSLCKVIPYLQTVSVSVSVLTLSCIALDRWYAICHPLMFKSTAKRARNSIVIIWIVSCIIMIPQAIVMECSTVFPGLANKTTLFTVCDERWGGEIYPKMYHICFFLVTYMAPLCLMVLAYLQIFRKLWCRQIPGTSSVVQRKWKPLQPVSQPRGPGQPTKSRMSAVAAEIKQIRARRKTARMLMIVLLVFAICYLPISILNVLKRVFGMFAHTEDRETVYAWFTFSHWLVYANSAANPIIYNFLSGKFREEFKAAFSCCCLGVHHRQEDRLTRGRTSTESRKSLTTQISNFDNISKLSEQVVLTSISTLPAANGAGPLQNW
Method in brief: as §1

Sequence of human orexin-1 receptor (O43613 whole entry): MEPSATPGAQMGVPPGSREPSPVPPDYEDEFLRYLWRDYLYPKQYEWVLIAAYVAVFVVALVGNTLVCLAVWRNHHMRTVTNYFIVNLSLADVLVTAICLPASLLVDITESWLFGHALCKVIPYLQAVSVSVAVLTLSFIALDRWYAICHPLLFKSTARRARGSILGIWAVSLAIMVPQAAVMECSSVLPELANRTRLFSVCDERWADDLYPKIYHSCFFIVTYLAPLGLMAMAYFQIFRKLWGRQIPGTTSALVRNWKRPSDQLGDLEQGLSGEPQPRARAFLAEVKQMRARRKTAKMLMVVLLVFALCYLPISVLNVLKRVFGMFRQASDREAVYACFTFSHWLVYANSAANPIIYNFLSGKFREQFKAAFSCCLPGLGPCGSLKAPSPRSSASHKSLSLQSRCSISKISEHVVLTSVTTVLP

| SMILES | IC50 (human orexin-1 receptor) | IC50 (human orexin-2 receptor) |
| --- | --- | --- |
| Cc1nc(C(=O)N2CCCC2c2nc3c(C)c(C)ccc3[nH]2)c(-c2ccccc2)s1 (stereo not drawn) [Ex. 1.139] | 103 nM | 26 nM |
| Cc1nc(C(=O)N2CCCC2c2nc3c4c(ccc3[nH]2)OCCO4)c(-c2ccccc2)s1 (stereo not drawn) [Ex. 1.140] | 192 nM | 46 nM |
| COc1ccc2[nH]c(C3CCCN3C(=O)c3cc(C)ccc3-n3nccn3)nc2c1 (stereo not drawn) [Ex. 1.141] | 507 nM | 13 nM |
| Cc1cc(C)c2nc([C@@H]3CCCN3C(=O)c3nc(C)sc3-c3ccccc3)[nH]c2c1 [Ex. 1.142] | 24 nM | 13 nM |
| Cc1nc(C(=O)N2CCC[C@H]2c2nc3cc(Cl)c(C)cc3[nH]2)c(-c2ccccc2)s1 [Ex. 1.143] | 14 nM | 16 nM |
| Cc1nc(C(=O)N2CCC[C@H]2c2nc3c(C)cc(Br)cc3[nH]2)c(-c2ccccc2)s1 [Ex. 1.144] | 33 nM | 27 nM |
| Cc1nc(C(=O)N2CCC[C@H]2c2nc3c(C)c(Cl)ccc3[nH]2)c(-c2ccccc2)s1 [Ex. 1.145] | 3 nM | 7 nM |
| Cc1nc(C(=O)N2CCC[C@H]2c2nc3cc(Cl)c(C(F)(F)F)cc3[nH]2)c(-c2ccccc2)s1 [Ex. 1.146] | 7 nM | 23 nM |
| CSc1ccc2nc([C@@H]3CCCN3C(=O)c3cc(F)ccc3-n3nccn3)[nH]c2c1 [Ex. 1.147] | 685 nM | 24 nM |
| CSc1ccc2nc([C@@H]3CCCN3C(=O)c3c(F)cccc3-n3nccn3)[nH]c2c1 [Ex. 1.148] | 1170 nM | 44 nM |
| CSc1ccc2nc([C@@H]3CCCN3C(=O)c3cc(Cl)ccc3-n3nccn3)[nH]c2c1 [Ex. 1.149] | 143 nM | 9 nM |
| COc1ccc(-n2nccn2)c(C(=O)N2CCC[C@H]2c2nc3ccc(SC)cc3[nH]2)c1 [Ex. 1.150] | 301 nM | 11 nM |
| CSc1ccc2nc([C@@H]3CCCN3C(=O)c3cc(C(F)(F)F)ccc3-n3nccn3)[nH]c2c1 [Ex. 1.151] | 763 nM | 110 nM |
| CSc1ccc2nc([C@@H]3CCCN3C(=O)c3cc(C#N)ccc3-n3nccn3)[nH]c2c1 [Ex. 1.152] | 282 nM | 23 nM |
| CSc1ccc2nc([C@@H]3CCCN3C(=O)c3ccc(C)cc3-n3nccn3)[nH]c2c1 [Ex. 1.153] | 40 nM | 3 nM |
| CSc1ccc2nc([C@@H]3CCCN3C(=O)c3c(C)cccc3-n3nccn3)[nH]c2c1 [Ex. 1.154] | 483 nM | 21 nM |
| COc1cc(C(=O)N2CCC[C@H]2c2nc3ccc(SC)cc3[nH]2)c(-n2nccn2)cc1OC [Ex. 1.155] | 36 nM | 16 nM |
| COc1ccc2nc([C@@H]3CCCN3C(=O)c3cc(F)ccc3-n3nccn3)[nH]c2c1 [Ex. 1.156] | 1810 nM | 29 nM |
| COc1ccc2nc([C@@H]3CCCN3C(=O)c3cc(Cl)ccc3-n3nccn3)[nH]c2c1 [Ex. 1.157] | 419 nM | 10 nM |
| COc1ccc(-n2nccn2)c(C(=O)N2CCC[C@H]2c2nc3ccc(OC)cc3[nH]2)c1 [Ex. 1.158] | 538 nM | 20 nM |
| COc1ccc2nc([C@@H]3CCCN3C(=O)c3cc(C#N)ccc3-n3nccn3)[nH]c2c1 [Ex. 1.159] | 903 nM | 23 nM |
| COc1ccc2nc([C@@H]3CCCN3C(=O)c3ccc(C)cc3-n3nccn3)[nH]c2c1 [Ex. 1.160] | 245 nM | 5 nM |
| COc1ccc2nc([C@@H]3CCCN3C(=O)c3c(C)cccc3-n3nccn3)[nH]c2c1 [Ex. 1.161] | 1450 nM | 22 nM |
| COc1ccc2nc([C@@H]3CCCN3C(=O)c3cc(OC)c(OC)cc3-n3nccn3)[nH]c2c1 [Ex. 1.162] | 458 nM | 27 nM |
| CSc1cccc2nc([C@@H]3CCCN3C(=O)c3cc(F)ccc3-n3nccn3)[nH]c12 [Ex. 1.163] | 167 nM | 17 nM |
| CSc1cccc2nc([C@@H]3CCCN3C(=O)c3c(F)cccc3-n3nccn3)[nH]c12 [Ex. 1.164] | 217 nM | 24 nM |
| CSc1cccc2nc([C@@H]3CCCN3C(=O)c3cc(Cl)ccc3-n3nccn3)[nH]c12 [Ex. 1.165] | 76 nM | 9 nM |

| SMILES | IC50 (human orexin-1 receptor) | IC50 (human orexin-2 receptor) |
| --- | --- | --- |
| COc1ccc(-n2nccn2)c(C(=O)N2CCC[C@H]2c2nc3cccc(SC)c3[nH]2)c1 [Ex. 1.166] | 45 nM | 4 nM |
| CSc1cccc2nc([C@@H]3CCCN3C(=O)c3cc(C#N)ccc3-n3nccn3)[nH]c12 [Ex. 1.167] | 97 nM | 15 nM |
| COc1ccc(-n2nccn2)c(C(=O)N2CCC[C@H]2c2nc3cccc(SC)c3[nH]2)c1F [Ex. 1.168] | 20 nM | 57 nM |
| CSc1cccc2nc([C@@H]3CCCN3C(=O)c3ccc(C)cc3-n3nccn3)[nH]c12 [Ex. 1.169] | 37 nM | 3 nM |
| CSc1cccc2nc([C@@H]3CCCN3C(=O)c3c(C)cccc3-n3nccn3)[nH]c12 [Ex. 1.170] | 258 nM | 20 nM |
| COc1ccc2[nH]c([C@@H]3CCCN3C(=O)c3cc(C)ccc3-n3cccn3)nc2c1 [Ex. 1.171] | 2210 nM | 36 nM |
| COc1ccc2[nH]c([C@@H]3CCCN3C(=O)c3c(-n4nccn4)ccc(C)c3F)nc2c1 [Ex. 1.172] | 1160 nM | 19 nM |
| COc1ccc2[nH]c([C@@H]3CCCN3C(=O)c3nc(C)ccc3-n3nccn3)nc2c1 [Ex. 1.173] | 3930 nM | 54 nM |
| CSc1cccc2[nH]c([C@@H]3CCCN3C(=O)c3c(-n4nccn4)ccc(C)c3F)nc12 [Ex. 1.174] | 68 nM | 87 nM |
| CSc1cccc2[nH]c([C@@H]3CCCN3C(=O)c3nc(C)ccc3-n3nccn3)nc12 [Ex. 1.175] | 528 nM | 76 nM |
| CSc1ccc2[nH]c([C@@H]3CCCN3C(=O)c3ccccc3-n3cccn3)nc2c1 [Ex. 1.176] | 2190 nM | 99 nM |
| CSc1ccc2[nH]c([C@@H]3CCCN3C(=O)c3cc(C)ccc3-n3cccn3)nc2c1 [Ex. 1.177] | 842 nM | 30 nM |
| CSc1ccc2[nH]c([C@@H]3CCCN3C(=O)c3nc(C)ccc3-n3cccn3)nc2c1 [Ex. 1.178] | 2680 nM | 96 nM |
| CSc1ccc2[nH]c([C@@H]3CCCN3C(=O)c3c(-n4nccn4)ccc(C)c3F)nc2c1 [Ex. 1.179] | 486 nM | 28 nM |
| CSc1ccc2[nH]c([C@@H]3CCCN3C(=O)c3nc(C)ccc3-n3nccn3)nc2c1 [Ex. 1.180] | 1490 nM | 50 nM |
| Cc1nc(C(=O)N2C[C@@H](F)C[C@H]2c2nc3c(C)cccc3[nH]2)c(-c2ccccc2)s1 [Ex. 2.2] | 1300 nM | 317 nM |
| Cc1nc(C(=O)N2C[C@H](F)C[C@H]2c2nc3c(C)cccc3[nH]2)c(-c2ccccc2)s1 [Ex. 2.3] | 67 nM | 61 nM |
| Cc1nc(C(=O)N2CC(F)(F)C[C@H]2c2nc3c(C)cccc3[nH]2)c(-c2ccccc2)s1 [Ex. 2.4] | 425 nM | 131 nM |
| Cc1ccc(-n2nccn2)c(C(=O)N2C[C@H](F)C[C@H]2c2nc3c(C)c(Cl)ccc3[nH]2)c1 [Ex. 2.5] | 6 nM | 12 nM |
| Cc1ccc(-n2nccn2)c(C(=O)N2CC(F)(F)C[C@H]2c2nc3c(C)c(Cl)ccc3[nH]2)c1 [Ex. 2.6] | 52 nM | 59 nM |
| Cc1nc(C(=O)N2C[C@@H](F)C[C@H]2c2nc3c(C)c(Cl)ccc3[nH]2)c(-c2ccccc2)s1 [Ex. 2.7] | 66 nM | 42 nM |
| Cc1nc(C(=O)N2CC(F)(F)C[C@H]2c2nc3c(C)c(Cl)ccc3[nH]2)c(-c2ccccc2)s1 [Ex. 2.8] | 70 nM | 51 nM |
| Cc1nc(C(=O)N2C[C@H](F)C[C@H]2c2nc3c(C)cccc3[nH]2)c(-c2cccc(Cl)c2)s1 [Ex. 2.9] | 17 nM | 18 nM |
| Cc1nc(C(=O)N2C[C@H](F)C[C@H]2c2nc3c(C)c(Cl)ccc3[nH]2)c(-c2cccc(Cl)c2)s1 [Ex. 2.10] | 5 nM | 8 nM |
| Cc1ccc(-n2nccn2)c(C(=O)N2C[C@H](F)C[C@H]2c2nc3c(C)cccc3[nH]2)c1 [Ex. 2.11] | 69 nM | 124 nM |
| CO[C@@H]1C[C@@H](c2nc3c(C)c(Cl)ccc3[nH]2)N(C(=O)c2cc(C)ccc2-n2nccn2)C1 [Ex. 3.2] | 13 nM | 6 nM |
| CO[C@H]1C[C@@H](c2nc3c(C)cccc3[nH]2)N(C(=O)c2nc(C)sc2-c2ccccc2)C1 [Ex. 3.3] | 1290 nM | 255 nM |

Source: patent US9732075B2, “Benzimidazole-proline derivatives” (IDORSIA PHARMACEUTICALS LTD, priority 2012, dated 2017)
